Patent US12077503B2, “Substituted cyclic amides and their use as herbicides” (FMC CORPORATION, priority 2015, dated 2024)

Columns and labels:
Format in all cases: in vivo
[1] = tested on: barnyardgrass (Echinochloa crus-galli); assay: Test A postemergence; conditions: Echinochloa crus-galli, post-emergence, 240 h, read-out: Barnyardgrass plant response rating (0 to 100 scale)
How it was run: (§1)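 Greenhouse, ~10 d after spray; visual injury vs untreated controls, 0 = no effect, 100 = complete control. Preemergence: directed soil spray over planted seeds. Postemergence: plants 2–10 cm, 1–2 leaf stage. Loam/sand blend. Compound in non-phytotoxic solvent with surfactant.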

Kochia (Kochia scoparia) [2] = assay: Test A postemergence; conditions: Bassia scoparia, post-emergence, 240 h, read-out: Kochia plant response rating (0 to 100 scale)
How it was run: as §1

corn (Zea mays) = assay: Test A postemergence; conditions: Zea mays, post-emergence, 240 h, read-out: Corn plant response rating (0 to 100 scale)
How it was run: as §1

[3] = tested on: giant foxtail (Setaria faberii); assay: Test A postemergence; conditions: Setaria faberi, post-emergence, 240 h, read-out: Foxtail, Giant plant response rating (0 to 100 scale)
How it was run: as §1

[4] = tested on: blackgrass (Alopecurus myosuroides); assay: Test A postemergence; conditions: Alopecurus myosuroides, post-emergence, 240 h, read-out: Blackgrass plant response rating (0 to 100 scale)
How it was run: as §1

[5] = tested on: Galium (catchweed bedstraw, Galium aparine); assay: Test A postemergence; conditions: Galium, post-emergence, 240 h, read-out: Galium plant response rating (0 to 100 scale)
How it was run: as §1

[6] = tested on: pigweed (Amaranthus retroflexus); assay: Test A postemergence; conditions: Amaranthus retroflexus, post-emergence, 240 h, read-out: Pigweed plant response rating (0 to 100 scale)
How it was run: as §1

[7] = tested on: wheat (Triticum aestivum); assay: Test A postemergence; conditions: Triticum aestivum, post-emergence, 240 h, Postemergence, 31 g ai/ha; 0 is no effect, 100 is complete control; read-out: Wheat plant response rating (0 to 100 scale)
How it was run: as §1

[8] = tested on: ryegrass, Italian (Italian ryegrass, Lolium multiflorum); assay: Test A postemergence; conditions: Lolium multiflorum, post-emergence, 240 h, read-out: Ryegrass, Italian plant response rating (0 to 100 scale)
How it was run: as §1

[9] = tested on: ragweed (common ragweed, Ambrosia elatior); assay: Test A postemergence; conditions: Ambrosia artemisiifolia, post-emergence, 240 h, read-out: Ragweed plant response rating (0 to 100 scale)
How it was run: as §1

[10] = tested on: barnyardgrass (Echinochloa crus-galli); assay: Test B flooded paddy test; conditions: Echinochloa crus-galli, 250 g ai/ha, Flood; 0 to 100 scale where 0 is no effect and 100 is complete control; read-out: Barnyardgrass plant response rating
How it was run: (§2)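 Greenhouse paddy pots with 2-leaf stage plants received compound by direct addition to floodwater 3 cm deep, kept at that level. Scored visually at 13–15 d versus controls (0 no effect; 100 complete control).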

[11] = tested on: ducksalad (Heteranthera limosa); assay: Test B flooded paddy test; conditions: Heteranthera limosa, 250 g ai/ha, Flood; 0 to 100 scale where 0 is no effect and 100 is complete control; read-out: Ducksalad plant response rating
How it was run: as §2

[12] = tested on: sedge, umbrella (small-flower umbrella sedge, Cyperus difformis); assay: Test B flooded paddy test; conditions: Cyperus difformis, 250 g ai/ha, Flood; 0 to 100 scale where 0 is no effect and 100 is complete control; read-out: Sedge, Umbrella plant response rating
How it was run: as §2

rice (Oryra sativa) = assay: Test B flooded paddy test; conditions: Oryza sativa, 250 g ai/ha, Flood; 0 to 100 scale where 0 is no effect and 100 is complete control; read-out: Rice plant response rating
How it was run: as §2

[13] = tested on: barnyardgrass (Echinochloa crus-galli); assay: Test A preemergence; conditions: Echinochloa crus-galli, pre-emergence, 240 h, 0 to 100 scale where 0 is no effect and 100 is complete control, read-out: Barnyardgrass plant response rating
How it was run: as §1

Kochia (Kochia scoparia) [14] = assay: Test A preemergence; conditions: Bassia scoparia, pre-emergence, 240 h, 0 to 100 scale where 0 is no effect and 100 is complete control, read-out: Kochia plant response rating
How it was run: as §1

[15] = tested on: giant foxtail (Setaria faberii); assay: Test A preemergence; conditions: Setaria faberi, pre-emergence, 240 h, 0 to 100 scale where 0 is no effect and 100 is complete control, read-out: Foxtail, Giant plant response rating
How it was run: as §1

[16] = tested on: pigweed (Amaranthus retroflexus); assay: Test A preemergence; conditions: Amaranthus retroflexus, pre-emergence, 240 h, 0 to 100 scale where 0 is no effect and 100 is complete control, read-out: Pigweed plant response rating
[17] = tested on: ryegrass, Italian (Italian ryegrass, Lolium multiflorum); assay: Test A preemergence; conditions: Lolium multiflorum, pre-emergence, 240 h, 0 to 100 scale where 0 is no effect and 100 is complete control, read-out: Ryegrass, Italian plant response rating
How it was run: as §1

[18] = tested on: ragweed (common ragweed, Ambrosia elatior); assay: Test A preemergence; conditions: Ambrosia artemisiifolia, pre-emergence, 240 h, 0 to 100 scale where 0 is no effect and 100 is complete control, read-out: Ragweed plant response rating
How it was run: as §1

[19] = 125 g ai/ha, postemergence, visual injury vs untreated controls after approx. 10 d, 0 = no effect, 100 = complete control
[20] = Postemergence, 31 g ai/ha, 0 is no effect, 100 is complete control
[21] = 125 g ai/ha, preemergence, visual injury rating, approximately 10 d

## O=C1NC[C@H](c2ccc(F)c(Oc3ccccc3)c2)[C@H]1C(=O)Nc1cccc(F)c1F [Compound 1258]
[1]; [19]
  pest or weed control at 125 g/ha: 70%
[1]; [20]
  pest or weed control at 31 g/ha: 30%
Kochia (Kochia scoparia) [2]; [19]
  pest or weed control at 125 g/ha: 0%
Kochia (Kochia scoparia) [2]; [20]
  pest or weed control at 31 g/ha: 0%
Corn (Zea mays); [19]
  plant injury at 125 g/ha: 40%
Corn (Zea mays); [20]
  plant injury at 31 g/ha: 0%
[3]; [19]
  pest or weed control at 125 g/ha: 60%
[3]; [20]
  pest or weed control at 31 g/ha: 30%
[4]; [19]
  pest or weed control at 125 g/ha: 0%
[4]; [20]
  pest or weed control at 31 g/ha: 0%
[5]; [19]
  pest or weed control at 125 g/ha: 80%
[5]; [20]
  pest or weed control at 31 g/ha: 70%
[6]; [19]
  pest or weed control at 125 g/ha: 30%
[6]; [20]
  pest or weed control at 31 g/ha: 0%
[7]
  plant injury at 31 g/ha: 0%
[8]; [19]
  pest or weed control at 125 g/ha: 0%
[8]; [20]
  pest or weed control at 31 g/ha: 0%
[9]; [19]
  pest or weed control at 125 g/ha: 0%
[9]; [20]
  pest or weed control at 31 g/ha: 0%
[10]
  pest or weed control at 250 g/ha: 40%
[11]
  pest or weed control at 250 g/ha: 0%
[12]
  pest or weed control at 250 g/ha: 0%
Rice (Oryra sativa)
  pest or weed control at 250 g/ha: 0%
[13]; 31 g ai/ha, Preemergence
  pest or weed control at 31 g/ha: 0%
[13]; [21]
  pest or weed control at 125 g/ha: 30%
Kochia (Kochia scoparia) [14]; 31 g ai/ha, Preemergence
  pest or weed control at 31 g/ha: 0%
Kochia (Kochia scoparia) [14]; [21]
  pest or weed control at 125 g/ha: 0%
[15]; 31 g ai/ha, Preemergence
  pest or weed control at 31 g/ha: 40%
[15]; [21]
  pest or weed control at 125 g/ha: 70%
[16]; 31 g ai/ha, Preemergence
  pest or weed control at 31 g/ha: 0%
[16]; [21]
  pest or weed control at 125 g/ha: 0%
[17]; 31 g ai/ha, Preemergence
  pest or weed control at 31 g/ha: 0%
[17]; [21]
  pest or weed control at 125 g/ha: 0%
[18]; 31 g ai/ha, Preemergence
  pest or weed control at 31 g/ha: 0%
[18]; [21]
  pest or weed control at 125 g/ha: 0%
